Data set [1] has as its system human umbilical vein endothelial cells (HUVECs). Put plainly: In vitro expression of PIGF as an effect of statin, HUVEC. Particulars: statin 1 μM or 10 μM, 24 hours. It is filed as cell-based. The protocol: For HUVEC cells, each of the stock solutions was added upon dilution to 1 μM or 10 μM in a culture medium.
HUVEC and HEK293T cells were plated at 2×10^4 and 1×10^5 cells per well in 6-well plates, respectively, and incubated under 5% CO2 at 37° C. After 24 hours, the medium was replaced with a fresh medium containing or not containing a statin. The media collected after another 24 hours were centrifuged at 1,000×g, and the supernatants were subjected to ELISA.

Data set [2] deals with pups of the pravastatin-treated female animals. Put plainly: Deformity in pups of treated female animals.
Data set [3] relates to pregnancy-induced hypertension syndrome model mice (placenta-specific hsFLT1 expression). Put plainly: Urinary albumin/creatinine (proteinuria) in model mice. The class given is in vivo, mouse. The following applies: urine at E18.5; average ± S.E.M. The protocol: (§1) Blood samples were allowed to clot and were centrifuged to prepare serum samples. Concentrations of hsF1T1, mVEGF, and mPIGF were measured with ELISA kits, according to the manufacturer's instructions (R&D system). Aspartate aminotransferase (AST) and alanine transaminase (ALT) were measured by Fuji dry-chem 3500V and dri-chem slides (Fuji Film.co). Urine samples were collected at E18.5. Urine albumin and creatinine concentrations were measured by using the Fuji dry-chem 3500V and dri-chem slides (Fuji Film.co, Tokyo Japan).

In data set [4] the test system is mPIGF. Put plainly: mPIGF concentration in the mother's blood by ELISA, LV-hsFLT1 model. Particulars: E18.5, pravastatin every day from E7.5, n=7. The class given is in vivo, mouse. The procedure: as §1
(In general: In an ELISA, binding on a coated surface is turned into a signal by an enzyme label.)

The test system of data set [5] is mPIGF. Put plainly: Circulating mPIGF in wild-type female mice not treated with viral vector. It is filed as in vivo, mouse. The procedure:
Pravastatin sodium salt (Cayman Chemical) was dissolved in 100% ethanol to produce a stock solution (1 mg/mL), which was diluted by sterile PBS (25 μg/mL) before use and intraperitoneally injected every day starting from E7.5 to E18.5 at 5 μg/animal unless specifically instructed otherwise.
as §1

Data set [6] deals with mVEGF. As to the kind of experiment: mVEGF concentration in the mother's blood by ELISA. The class given is in vivo, mouse. Particulars: E18.5; LV-hsFLT1 model; pravastatin every day from E7.5; n=6. The protocol: as §1
In data set [7] the test system is wild-type pregnant mice. The following applies: normal pregnant animals without LV-hsFLT1.
Procedure: Blood pressure was measured by the tail-cuff method (Softron Ltd, Tokyo, Japan). The mice were lightly fixed in a small cage without anesthesia, and their blood pressure was measured after their behavior, heart rate, and blood pressure stabilized. After stabilization, both systolic and diastolic blood pressures were recorded at least five times until the stabilization became unstable. Mean values of both the systolic and diastolic blood pressures measured as mentioned above were used for further statistical analysis.
For data set [8], the system named is hsFLT1. Put plainly: hsFLT1 concentration in the mother's blood by ELISA. The following applies: E18.5; LV-hsFLT1 100 ng-p24/mL; pravastatin every day from E7.5 where given; mean±s.e.m. It is filed as in vivo, mouse. The procedure: as §1
The subject of data set [9] is rat model of preeclampsia. The following applies: Hypertension 2007; 50(4): 686-92; cited from earlier work.
For data set [10], the system named is hypertension induced by sFLT1 expressed by an adenovirus. The following applies: Hypertension 2009; 54(5): 1129-35; cited from earlier work.

Consider four molecules from patent US9700024B2 (priority 2010, dated 2017).

“Also recorded” adds a separate entry of the source.

As to `CC(C)c1c(C(=O)Nc2ccccc2)c(-c2ccccc2)c(-c2ccc(F)cc2)n1CC[C@@H](O)C[C@@H](O)CC(=O)O` [atorvastatin, (−)-Monocalcium bis {(3R,5R)-7-[2-(4-fluorophenyl-5-isopropyl-3-phenyl-4-phenylcarbamoyl-1H-pyrrol-1-yl]-3,5-dihydroxyheptanoate}trihydrate], the “PIGF production in supernatant” value in data set [1] is recorded as “induced PGF production; also recorded: induce PIGF production”.

As for `CC[C@H](C)C(=O)O[C@H]1C[C@H](O)C=C2C=C[C@H](C)[C@H](CC[C@@H](O)C[C@@H](O)CC(=O)O)[C@H]21` [pravastatin, Monosodium(3R,5R)-3,5-dihydroxy-7-{(1S,2S,6S,8S,8aR)-6-hydroxy-2-methyl-8-[(2S)-2-methylbutanoyloxy]-1,2,6,7,8,8a-hexahydronaphthalen-1-yl}heptanoate], the “deformity in the pups” value in data set [2] is on record as “did not notice any deformity”. Further, the “ALBUMIN/CREATININE AVERAGE” value in data set [3] is recorded as 4.06 ± 0.38. Moreover, the “mPIGF concentration in maternal blood” value in [4] is 116.6 ± 13.2 pg/mL. Further, the “circulating mPIGF” value was found to be 29.8 ± 13.2 pg/mL in data set [5] (wild-type non-pregnant female animals, n=5) and 152.0 ± 19.7 pg/mL in data set [5] (wild-type pregnant female animals, n=4). Besides, the “mVEGF protein level in maternal blood” value in data set [6] turned out to be 35.5 ± 13.6 pg/mL. Also, in [7], the “blood pressure / hypotensive effect” value is recorded as “not hypotensive; also recorded: did not change”. Besides, in data set [8], the “circulating hsFLT1 concentration in the mother's blood” value amounted to 0.99 ± 0.65 ng/mL.

Take VEGF: the hypertension result in data set [9] is “improves hypertension”.

B1: recombinant PIGF: recombinant placental growth factor 2 (literature) (protein)
chain: VHSQGALSAGNNSTEVEVVPFNEVWGRSYCRPMEKLVYILDEYPDEVSHIFSPSCVLLSRCSGCCGDEGLHCVPIKTANITMQILKIPPNRDPHFYVEMTFSQDVLCECRPILETTKAERRKTKGKRKRSRNSQTEEPHP
For the molecule B1, the hypertension result in [10] is “improves hypertension”.
